Data from patent publication US11730743B2, “Protection of cells from degeneration and treatment of geographic atrophy” (University of Kentucky Research Foundation, priority 2012, dated 2023).

Experiments:
wild-type mice = assay: Laser-induced choroidal neovascularization; format: in vivo; conditions: intravitreous injection
[1] = test system: Dicer1f/f mouse RPE cells; assay: Cell viability of Dicer1f/f mouse RPE cells treated with Ad-Cre; format: cell-based
Protocol: (§1) Adenoviral infection. Cells were plated at density of 15×10^3/cm^2 and after 16 h, at approximately 50% confluence, were infected with AdCre or AdNull (Vector Laboratories) with a multiplicity of infection of 1,000.

[2] = test system: Dicer1f/f mouse RPE cells; assay: miRNA quantification in Dicer1f/f mouse RPE cells treated with Ad-Cre; format: cell-based; conditions: versus control peptide
Excerpt: miRNA quantification. Total RNA containing miRNAs was polyadenylated and reverse transcribed using universal primer using the All-In-One miRNA q-RT-PCR Detection Kit (GeneCopoeia) according to the manufacturer's specifications using a universal reverse primer in combination with forward primers for: mouse miR-184; mouse miR-221/222; mouse miR-320a; and mouse miR-484. miRNA levels were normalized to levels of U6 snRNA using the 2^−ΔΔct method. Detection was achieved by SYBR green qPCR with the following conditions: 95° C. for 10 min followed by 40 cycles of 95° C. for 10 s, 60° C. for 20 s and 72° C. for 20 s. Amplicon specificity was assessed by melt curve analysis and unique bands by agarose gel electrophoresis.
as §1

human RPE cells = test system: human RPE cells
Protocol: Cell viability. Cell viability measurements were performed using the CellTiter 96 AQueous One Solution Cell Proliferation Assay (Promega) in according to the manufacturer's instructions.
Cell culture. All cell cultures were maintained at 37° C. and 5% CO2. Primary mouse RPE cells were isolated as previously described (Yang et al., 2009) and grown in Dulbecco Modified Eagle Medium (DMEM) supplemented with 20% FBS and standard antibiotics concentrations. Primary human RPE cells were isolated as previously described (Yang et al., 2008) and maintained in DMEM supplemented with 10% FBS and antibiotics. HeLa cells were maintained in DMEM supplemented with 20% FBS and standard antibiotics concentrations. THP-1 cells were cultured in RPMI 1640 medium supplemented with 10% FBS and antibiotics.
Transient transfection. Human or mouse RPE cells were transfected with pUC19, pAlu, pCDNA3.1/Dicer-FLAG, pCDNA3.1, Alu RNA, NLRP3 siRNA sense, PYCARD siRNA sense, MyD88 siRNA sense, DICER1 antisense oligonucleotide (AS), control (for DICER1) AS, Alu AS, and control (for Alu) AS using Lipofectamine 2000 (Invitrogen) according to the manufacturer's instructions.
Cell viability. MTS assays were performed using the CellTiter 96 AQueous One Solution Cell Proliferation Assay (Promega) according to the manufacturer's instructions. For examining the cytoprotective effect of glycine in Alu RNA induced cell death, human RPE cells were transfected with pNull/pAlu. At 6 h post-transfection the cells were incubated with complete media containing glycine (5 mM) or vehicle, and cell viability was assessed after 24 h. Similarly, human RPE cells primed with LPS (5 μg/ml for 6 h) were treated with ATP (25 μM) in the presence of glycine containing media (5 mM). 30 min post ATP cell viability was assessed as described above.

Caspase-1 = target: T1, Caspase-1 (Homo sapiens, UniProt P29466); assay: Caspase-1 activation in cultured cells (western blot p20, Caspalux1 substrate cleavage); format: cell-based; conditions: human RPE cells
T1 construct: endogenous in cells; host or cells: primary human RPE cells; also THP-1 and HeLa cells
T1 sequence (P29466 120-297 limits assumed): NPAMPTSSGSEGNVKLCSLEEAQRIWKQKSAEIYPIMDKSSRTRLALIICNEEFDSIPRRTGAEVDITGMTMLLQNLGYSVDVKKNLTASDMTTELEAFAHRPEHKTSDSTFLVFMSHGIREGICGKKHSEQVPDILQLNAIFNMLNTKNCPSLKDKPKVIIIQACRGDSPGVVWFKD
T1 sequence (P29466 317-404 limits assumed): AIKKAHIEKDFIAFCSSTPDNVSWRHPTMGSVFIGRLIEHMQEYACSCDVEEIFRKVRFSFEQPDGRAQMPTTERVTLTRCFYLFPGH
Protocol: Protein abundance and activity. Protein abundance was assessed by Western blot analysis using primary antibodies recognizing Caspase-1 (1:500; Invitrogen), pIRAK1 (1:500; Thermo Scientific), pIRAK4 (1:500, Abbomax, Inc), PYCARD (1:200, Santa Cruz Biotechnology), NLRP3 (1:500, Enzo Life Sciences) and Vinculin (1:1,000; Sigma-Aldrich). Caspase-1 activity was visualized using Caspalux1 E1D2 (OncoImmunin) reagent according to the manufacturer's instructions.
Western blotting. Tissues or cells were homogenized in lysis buffer (10 mM Tris base, pH 7.4, 150 mM NaCl, 1 mM EDTA, 1 mM EGTA, 1% Triton X-100, 0.5% NP-40, protease and phosphatase inhibitor cocktail (Roche)). Protein concentrations were determined using a Bradford assay kit (Bio-Rad) with bovine serum albumin as a standard. Proteins (40-100 μg) were run on NuPAGE Bis-Tris gels (Invitrogen) and transferred to Immun-Blot PVDF membranes (Bio-Rad). Cells were scraped in hot Laemmli buffer (62.5 mM Tris base, pH 6.8, 2% SDS, 5% 2-Mercaptoethanol, 10% Glycerol, 0.01% Bromophenol Blue). Samples were boiled and run on 4-20% NuPAGE Tris-Glycine gels (Invitrogen). The transferred membranes were blocked for 1 h at RT and incubated with antibodies against human Caspase-1 (1:500; Invitrogen), mouse Caspase1 (1:500; MBL), NLRP3 (1:1000; Enzo Life Sciences), PYCARD (1:1000, RayBiotech), phospho-IRAK1 (S376) (1:500, Thermo Scientific), phospho-IRAK4 (T345) (1:500, AbboMax), DICER1 (1:2,000; Bethyl), MyD88 (1:1,000; Cell Signaling), and mouse IL-18 (1:200; MBL) at 4° C. overnight. Protein loading was assessed by immunoblotting using an anti-Vinculin antibody (1:1,000; Sigma-Aldrich). The secondary antibodies were used (1:5,000) for 1 h at RT. […]
Caspase-1 activity. […] Caspalux1E1D2 signal was quantified reading the fluorescence (excitation 552 nm, emission 580 nm) using a Synergy 4 reader (Biotek). Quantification of fluorescence from images was performed by converting images into grayscale in Adobe Photoshop CS5, and measuring the integrated density of black and white images using ImageJ software (NIH) (Bogdanovich et al., 2008).

“MyD88 inhibitory peptide: peptide inhibitor of MyD88 homodimerization IMG-2005 (IMGENEX)” was tested, and the laser-induced choroidal neovascularization (wild-type mice) was “reduced”, the “cell death in Dicer1f/f mouse RPE cells treated with adenoviral vector coding for Cre recombinase” value [1] was “prevented cell death” and the “miRNA abundance in Dicer1 depleted cells” value [2] was “No significant difference”. For the same substance, the “cell death in human RPE cells treated with antisense oligonucleotides targeting DICER1” value (human RPE cells; DICER1 AS) was “prevented cell death”, the “pAlu-induced human RPE cell death (loss of cell viability)” value (human RPE cells; human RPE cells transfected with pAlu) was “inhibited cell death” and the “Alu RNA-induced fluorescent substrate cleavage (Caspase-1 activity)” value (Caspase-1; Caspalux1) was “did not reduce”. The “Alu RNA-induced Caspase-1 cleavage (p20 subunit)” value (Caspase-1; western blot) was “did not reduce”.
